Test [1] concerns primary neural stem cells from neonatal mice. Put plainly: In vitro oligodendrocyte differentiation from neural stem cells. In kind it is cell-based. Here is the method: To determine the impact of oxysterol exposure on cellular differentiation, primary neural stem cells from neonatal mice were cultured in chamber slides. Cells were cultured in media alone (control) or 1 μM 20α-hydroxycholesterol for 7 days were then allowed to differentiate for 18 days. The differentiated cells were immunostained for markers of oligodendrocytes (Olig2 and CNPase) and visualized on a confocal microscope (FIG. 1A). […] Protein samples from control and 20α-hydroxycholesterol treated stem cell cultures were then fractionated and probed for markers of the oligodendrocyte lineage.

Test [2] deals with olig2+ cells in the corpus callosum. Put plainly: In vivo oligodendrocyte differentiation in uninjured postnatal mice. The note with it: uninjured five-day old mice, 100 mg/kg/day subcutaneously, 4 daily doses, analyzed five days after final injection; vs vehicle; p<0.02. The method, then:
20α-hydroxycholesterol was administered to uninjured postnatal mice during the normal myelination period to determine if oxysterol exposure increased the numbers of oligodendrocytes in vivo. Five-day old mice were administered 4 daily doses of vehicle control (n=4) or 20α-hydroxycholesterol (n=4) subcutaneously (100 mg/kg/day) and rested. Five days after the final injection, the mice were analyzed to quantify the number of olig2+ cells in the corpus callosum (FIG. 2A, FIG. 2B).

Test [3] has as its system olig2APC+ oligodendrocytes in the periventricular white matter of the corpus callosum. Put plainly: Perinatal mouse model of sepsis-associated myelin injury, stereological oligodendrocyte counting. In kind it is in vivo, mice. To be noted: sepsis injury on postnatal day 5; 100 mg/kg/day subcutaneous for 5 days from 24 hours after injury; stereology on postnatal day 25; p=0.001. Here is the method: Quantification of oligodendrocyte cell numbers in the brain is critical to determining the impact of oxysterol therapy. Stereology is a useful research tool used by neuroscientists to provide accurate and unbiased estimates of cell numbers within specified brain regions. The number of oligodendrocyte numbers is determined using Stereo Investoigator™ software (MBF Bioscience) and a Zeiss Axiolmager M2 motorized fluorescent microscope with Apotome structured illumination. Perfusion fixed cryoprotected brains are frozen sectioned at […] and collected free-floating in phosphate buffered saline. […] Olig2+APC+ nucleated cells are then counted throughout the corpus callosum using a 63× oil objective lens.
Perinatal bowel perforation is a common complication of premature birth and is strongly linked to myelin injury and cerebral palsy. Using a perinatal mouse model of bowel perforation to induce sepsis-associated diffuse myelin injury on postnatal day 5, sepsis mice were determined to have a 60% reduction of mature oligodendrocytes at postnatal day 25 (FIG. 3).
To determine the efficacy of oxysterol therapy, the perinatal mouse model was employed to induce injury in mice on postnatal day 5. […] Coronal sections of the brains were analyzed using stereology on postnatal day 25 to determine the number of olig2APC+ oligodendrocytes in the periventricular white matter of the corpus callosum. […]

In test [4] the test system is sepsis-induced myelin injury. Put plainly: CatWalk gait analysis of mice after perinatal sepsis-induced myelin injury. The test is classed as in vivo. The note with it: sepsis-injured mice. An excerpt: The detection of differences in locomotor function is an important tool for the assessment of the severity of many conditions that affect the central nervous system (CNS), peripheral nervous system (PNS) and skeletal structures or muscles. A gait analysis system, such as the CatWalk™ XT, provides automatic and sensitive detection of a full range of parameters related to footprints and the dynamics of gait in animal testing.
The impact of oxysterol therapy on motor function in injured mice was also determined. Mice were subjected to sepsis-induced myelin injury on postnatal day 5. Twenty-four hours after injury, septic mice were divided into a vehicle control group and an oxysterol treated group. Treatment with 20α-hydroxycholesterol (100 mg/kg/day) was carried out daily for five days. At two months of age (adult), mice were evaluated on a CatWalk Gait Analysis System (Noldus Inc.). The gait analysis system identified multiple disturbances in the gait of untreated mature mice that survived perinatal sepsis. However, these gait disturbances were not present in mice treated with 20α-hydroxycholesterol.
Regularity Index: Regularity Index is a measure of interpaw coordination, and disturbances in regularity may be a result of cerebral injury. The Regularity Index was determined for uninjured control mice (FIG. 4A, FIG. 4D), sepsis mice (FIG. 4B, FIG. 4D), and septic mice treated with the oxysterol 20HC (FIG. 4C, FIG. 4D).
Stand and step cycle: Stand and step cycle are measures of the length of time the animal's paws are in contact with the platform as they walk. Increased stand and step cycle times are measures of gait instability.
Swing and swing speed: Swing and swing speed are measures of the animals “rocking” as they walk. While the swing was increased in perinatal sepsis survivors (FIG. 5C), the swing speed was decreased in sepsis survivors (FIG. 5D) consistant with an unsteady gait.

The target in test [5] is smoothened (SMO) (Homo sapiens, UniProt Q99835). To be noted: fibroblast cell culture systems; recent studies; cited from earlier work.
For test [6], the system named is Primary neural stem cells. The experiment in a line: In vitro oligodendrocyte differentiation from neural stem cells with breast milk-associated oxysterols (western blot). In kind it is cell-based. The note with it: 1 μm and 0.5 μm for five days, then 18 days differentiation; FIG. 8. The method, then: FIG. 8 is a western blot analysis. Stem cells were treated with oxysterols at doses indicated for 5 days then allowed to differentiate for 18 days. Primary neural stem cells were treated with 24-hydroxycholesterol and 25-hydroxycholesterol at 1 μm and 0.5 μm for five days, then allowed to differentiate for 18 days. Protein lysates were probed for oligodendrocyte-associated proteins CNPase and myelin basic protein (MBP).
In general terms: Immunoblotting shows a protein as a band on a membrane.

Sequence of smoothened (SMO) (Q99835 28-787): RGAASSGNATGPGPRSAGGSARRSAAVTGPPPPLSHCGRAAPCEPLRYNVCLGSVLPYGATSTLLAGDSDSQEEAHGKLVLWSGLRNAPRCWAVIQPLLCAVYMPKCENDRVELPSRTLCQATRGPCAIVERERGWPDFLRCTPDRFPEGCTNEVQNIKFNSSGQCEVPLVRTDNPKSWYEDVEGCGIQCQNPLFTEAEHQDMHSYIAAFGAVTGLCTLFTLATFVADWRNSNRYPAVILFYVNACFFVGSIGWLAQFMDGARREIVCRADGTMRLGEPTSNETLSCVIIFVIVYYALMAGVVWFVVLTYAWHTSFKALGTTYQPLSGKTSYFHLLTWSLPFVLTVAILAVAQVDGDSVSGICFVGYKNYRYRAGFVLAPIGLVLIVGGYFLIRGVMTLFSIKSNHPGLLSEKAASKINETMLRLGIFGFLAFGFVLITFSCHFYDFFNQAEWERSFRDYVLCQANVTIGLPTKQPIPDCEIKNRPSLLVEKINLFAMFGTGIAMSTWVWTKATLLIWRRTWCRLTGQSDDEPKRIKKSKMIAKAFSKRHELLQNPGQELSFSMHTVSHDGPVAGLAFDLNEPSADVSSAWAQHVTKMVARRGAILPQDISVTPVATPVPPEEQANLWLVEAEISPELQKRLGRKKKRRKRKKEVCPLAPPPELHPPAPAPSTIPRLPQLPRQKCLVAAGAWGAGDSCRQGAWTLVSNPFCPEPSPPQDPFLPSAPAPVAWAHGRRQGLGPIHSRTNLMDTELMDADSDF

Take `CC(C)CCC[C@](C)(O)[C@H]1CC[C@H]2[C@@H]3CC=C4C[C@@H](O)CC[C@]4(C)[C@H]3CC[C@@]21C` [20α-hydroxycholesterol]: the “olig2+ CNPase+ cells (oligodendrocytes), cell counting” value in test [1] (1 μM for 7 days, then 18 days differentiation, vs media alone, p<0.02, FIG. 1C) was “significant increase”. The “CNPase, Olig2 and myelin basic protein (MBP), Western blot” value in test [1] (1 μM treated stem cell cultures vs control, FIG. 1D) is listed as “increase”. Also, in test [2], the “olig2+ cell population in the corpus callosum” value is given as “significant increase”. In test [3], the “amount of oligodendrocytes (olig2APC+) within the periventricular white matter” value was “significantly increased”. In test [4] (100 mg/kg/day daily for five days, evaluated at two months of age), the “gait disturbances (CatWalk Gait Analysis System)” value is given as “not present”. Further, the “Regularity Index (interpaw coordination)” value in test [4] (100 mg/kg/day daily for five days, two months of age, FIG. 4D) is recorded as “completely reversed any observed deficits”. Moreover, in test [4] (FIG. 5C, 5D), the “Swing and swing speed” value is recorded as “reversed all of these measures of gait disturbances”. Also, the “SHH pathway activation via direct binding to smoothened (SMO)” value in test [5] is “activate the SHH pathway”.

For the compound `CC(C)CC[C@@H](O)[C@@H](C)[C@H]1CC[C@H]2[C@@H]3CC=C4C[C@@H](O)CC[C@]4(C)[C@H]3CC[C@]12C` [22α-hydroxycholesterol], the “SHH pathway activation via direct binding to smoothened (SMO)” value in test [5] was “activate the SHH pathway”.

Consider `CC(C)C(O)CC[C@@H](C)[C@H]1CC[C@H]2[C@@H]3CC=C4C[C@@H](O)CC[C@]4(C)[C@H]3CC[C@]12C` (some centres unmarked) [24-hydroxycholesterol], for which the “expression of oligodendrocyte-associated proteins CNPase and MBP (western blot)” value in test [6] is “induced expression”.

As for `C[C@H](CCCC(C)(C)O)[C@H]1CC[C@H]2[C@@H]3CC=C4C[C@@H](O)CC[C@]4(C)[C@H]3CC[C@]12C` [25-hydroxycholesterol], the “expression of oligodendrocyte-associated proteins CNPase and MBP (western blot)” value in test [6] is listed as “induced expression”.

The record behind these values is patent US12029742B2, “Compositions and methods for the repair of myelin” (Duke University, priority 2014, dated 2024).
